A word on the Ki: it is a measure of affinity in units of concentration, obtained from inhibition or displacement. Read a low Ki as tighter binding.

This note sets out measurements from ChEMBL document CHEMBL1129888, “Synthesis and evaluation of halogenated dibenzodiazepines as muscarinic receptor ligands” (Bioorg Med Chem Lett, 1997).

The target of assay [1] is Muscarinic acetylcholine receptor M3 (Homo sapiens, UniProt P20309). Put plainly: Tested in vitro for the binding affinity against muscarinic receptor subtype 3 (M3).
The target of assay [2] is T1, Muscarinic acetylcholine receptor M2 (Homo sapiens, UniProt P08172).
T1 sequence (P08172 whole entry): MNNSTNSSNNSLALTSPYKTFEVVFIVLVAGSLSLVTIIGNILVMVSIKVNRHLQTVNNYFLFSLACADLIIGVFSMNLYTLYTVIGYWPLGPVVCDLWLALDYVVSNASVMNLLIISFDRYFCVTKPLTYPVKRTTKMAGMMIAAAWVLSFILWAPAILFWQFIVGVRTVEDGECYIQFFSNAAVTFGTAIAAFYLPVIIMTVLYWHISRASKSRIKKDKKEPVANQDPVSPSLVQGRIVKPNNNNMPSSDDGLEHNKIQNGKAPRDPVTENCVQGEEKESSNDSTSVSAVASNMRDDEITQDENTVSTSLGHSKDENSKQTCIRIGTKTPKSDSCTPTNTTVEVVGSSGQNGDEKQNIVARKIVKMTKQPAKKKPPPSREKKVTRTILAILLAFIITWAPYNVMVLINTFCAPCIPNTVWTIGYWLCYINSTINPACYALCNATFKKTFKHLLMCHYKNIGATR
Nature of the assay: Tested in vitro for the binding affinity against muscarinic receptor subtype 2 (M2).

The target of assay [3] is T2, Muscarinic acetylcholine receptor M1 (Homo sapiens, UniProt P11229).
T2 sequence (P11229 whole entry): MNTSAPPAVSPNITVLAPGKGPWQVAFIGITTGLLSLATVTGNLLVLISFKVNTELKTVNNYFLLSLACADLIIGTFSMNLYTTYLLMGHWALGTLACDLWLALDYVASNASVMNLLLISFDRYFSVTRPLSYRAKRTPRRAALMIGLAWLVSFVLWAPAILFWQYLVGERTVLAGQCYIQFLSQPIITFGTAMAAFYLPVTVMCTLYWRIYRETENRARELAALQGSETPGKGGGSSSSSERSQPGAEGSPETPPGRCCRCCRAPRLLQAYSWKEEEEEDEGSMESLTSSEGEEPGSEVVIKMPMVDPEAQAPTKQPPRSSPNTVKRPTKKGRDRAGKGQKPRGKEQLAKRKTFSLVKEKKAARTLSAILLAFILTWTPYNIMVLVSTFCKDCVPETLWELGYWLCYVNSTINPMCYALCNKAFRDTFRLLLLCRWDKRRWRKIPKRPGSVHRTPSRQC
Put plainly: Tested in vitro for the binding affinity against muscarinic receptor subtype 1 (M1).

Muscarinic acetylcholine receptor M3, sequence (P20309 whole entry): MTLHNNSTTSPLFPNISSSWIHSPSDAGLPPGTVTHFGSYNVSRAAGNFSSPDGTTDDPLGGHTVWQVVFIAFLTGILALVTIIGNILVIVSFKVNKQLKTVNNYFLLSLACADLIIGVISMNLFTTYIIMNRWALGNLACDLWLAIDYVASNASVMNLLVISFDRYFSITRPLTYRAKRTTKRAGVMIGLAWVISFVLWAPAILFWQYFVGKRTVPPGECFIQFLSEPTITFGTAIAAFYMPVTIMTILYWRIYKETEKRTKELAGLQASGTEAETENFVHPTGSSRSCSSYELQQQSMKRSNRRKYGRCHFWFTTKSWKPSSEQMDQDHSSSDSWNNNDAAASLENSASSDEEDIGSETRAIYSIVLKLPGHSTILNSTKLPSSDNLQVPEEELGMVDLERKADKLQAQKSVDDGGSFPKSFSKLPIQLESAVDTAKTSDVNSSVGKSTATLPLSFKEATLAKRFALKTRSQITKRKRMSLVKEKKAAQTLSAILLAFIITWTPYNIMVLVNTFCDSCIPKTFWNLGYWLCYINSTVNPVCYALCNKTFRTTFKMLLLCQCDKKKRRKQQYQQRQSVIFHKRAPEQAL

`CCOC(=O)N(CC)CCCCC1CCN(CC(=O)N2c3ccccc3NC(=O)c3ccccc32)CC1`: the inhibitory constant (Ki) in assay [1] is 39.2 nM; in assay [2], 37.1 nM; in assay [3] it was 70 nM.
For `CCN(CCCCC1CCN(CC(=O)N2c3ccccc3NC(=O)c3ccccc32)CC1)C(=O)c1cccc(I)c1` the same measures were 33.5 nM, 111 nM and 67.1 nM.
For `CCN(CCCCC1CCN(CC(=O)N2c3ccccc3C(=O)N(C(=O)c3ccc(F)cc3)c3ccccc32)CC1)C(=O)c1ccc(F)cc1` the same measures were 79.1 nM, 46.9 nM and 129 nM.
As to `CCN(CCCCC1CCN(CC(=O)N2c3ccccc3NC(=O)c3ccccc32)CC1)C(=O)c1ccc(F)cc1`, the Ki in assay [1] was found to be 46.4 nM; in assay [2], 32 nM; in assay [3] it was 59.4 nM.
Take `CCNCCCCC1CCN(CC(=O)N2c3ccccc3NC(=O)c3ccccc32)CC1`: the Ki in assay [2] came to 4.49 nM; in assay [3], 6.98 nM.
